Entries after “also recorded” stand apart in the source; their conditions may differ. Marks after values point to notes of the source that are not given here.
What was measured:
[1] = test system: P. aeruginosa (ATCC® 15442); assay: Inhibition of biofilm formation, crystal violet staining assay; assay type: cell-based, Pseudomonas aeruginosa; details: for Biofilm (OD 595 nm): 24 hr; for Biofilm (OD 595 nm) / biofilm formed (CVSA), in words: 30° C.; for inhibition of biofilm formation, conclusion in words: any dose tested; for biofilm formed (CVSA), in words: concentrations less than 125 ug/ml
Experimental: A stock solution of 1000 ug of V and capsaicin was prepared by dissolving 1000 μg in 100 μl of ethanol and 900 μl of sterile water. The stock solutions were sequentially diluted with […] of solvent (10% aqueous ethanol solution) to yield 500/125//31.25/7.81 μg/ml test solutions.
P. aeruginosa (ATCC® 15442) was used to determine the biofilm inhibition activity. Inducer N-hexanoyl homoserine lactone (C6-HSL) was purchased from Sigma-Aldrich. ATCC® 15442 was cultivated in Luria-Bertani (LB) medium (LB, 5 g yeast extract, 10 g tryptone, 5 g NaCl, 1 L water) at 30° C. overnight under aerobic conditions.
(§1) Biofilm formation was quantified with modifications using the method described by Stepanovic et al. (Journal of Microbiological Methods, 2000, 40(2), 175-19) with modifications. Using a 96-well microplate duplicate the test solutions were filled at the above selected doses. Cultures were grown for 18 hr in LB at 30° C. and adjusted to OD 0.1 at 600 nm. 20 μL of the culture were added into each well and the remainder of the volume to 200 μL per well was filled with LB. Unused external wells were filled with 200 μL of sterile water to prevent evaporation.
(§2) After 24 hr of incubation, supernatants were discarded, and the wells were washed three times with 200 μL of sterile phosphate buffered saline (PBS). Bacteria adhered to the wells were fixed with 200 μL of methanol for 15 min, the methanol was discarded, and the plates dried at 25° C.
(§3) Each well was stained with 200 μL of 0.3% (w/v) crystal violet solution for 5 min at 25° C. Crystal violet excess was pipetted out, and the wells were rinsed five times with sterile PBS. 200 μL of 33% (v/v) glacial acetic acid were added to the wells for 30 min to solubilise the dye adhered to the cell walls. Optical density (OD) was measured at 595 nm using a microplate spectrophotometer as a direct measure of biofilm formation. P. aeruginosa in 3% DMSO will be used as the negative control.

[2] = Rage Paulsen et al., Toxicology Research and Application 2018; cited from earlier work
[3] = test system: Salmonella enterica subsp. enterica serovar Paratyphi C (ATCC® BAA 1714™); assay: Inhibition of biofilm formation, crystal violet staining assay (Example 5); assay type: cell-based; details: for Biofilm (OD 595 nm): 24 hr; for Biofilm (OD 595 nm) / biofilm formed (CVSA), in words: 30° C.; for biofilm formed (CVSA), in words: 32 and 8 μg/ml
Experimental: as §1, §2, §3
A stock solution of 1000 μg of phenylcapsaicin and capsaicin was prepared by dissolving 1000 μg in 100 μl of ethanol and 900 μl of sterile water. The stock solutions were sequentially diluted with double and then quadruple volumes of solvent (10% aqueous ethanol solution) to yield 500/125/31.25 (32)/7.81 (8) μg/ml test solutions.
ATCC® BAA 1714™ was used to determine the biofilm inhibition activity. Inducer N-hexanoyl homoserine lactone (C6-HSL) was purchased from Sigma-Aldrich. ATCC® BAA 1714™ was cultivated in Luria-Bertani (LB) medium (LB, 5 g yeast extract, 10 g tryptone, 5 g NaCl, 1 L water) at 37° C. overnight under aerobic conditions.
Crystal violet staining assay was performed as in Experiment 3, using ATCC® BAA 1714™ in 3% DMSO as the control.

COc1cc(CNC(=O)CCCCC#Cc2ccccc2)ccc1O [Phenylcapsaicin, N-[(4-hydroxy-3-methoxyphenyl)methyl]-7-phenylhept-6-ynamide]
Biofilm (OD 595 nm) ([1]; 7.81 μg/mL): 1.7^b OD 595 nm
Biofilm (OD 595 nm) ([1]; 31.125 μg/mL): 1.3^b OD 595 nm
Biofilm (OD 595 nm) ([1]; 125 μg/mL): 1.9^b OD 595 nm
inhibition of biofilm formation, conclusion in words [1]: potent inhibitor of biofilm formation
biofilm formed (CVSA), in words [1]: significantly reduced
safety with regards to gene mutations and chromosomal damage [2]: safe
systemic toxicity [2]: low systemic toxicity
Biofilm (OD 595 nm) ([3]; 7.81 μg/mL): 2.9^b OD 595 nm
Biofilm (OD 595 nm) ([3]; 31.125 μg/mL): 3.2^b OD 595 nm
biofilm formed (CVSA), in words [3]: significantly reduced; also recorded: good inhibitor of biofilm formation

COc1cc(CNC(=O)CCCC/C=C/C(C)C)ccc1O [Capsaicin, (E)-N-(4-hydroxy-3-methoxybenzyl)-8-methylnon-6-enamide, reference compound]
Biofilm (OD 595 nm) ([1]; 7.81 μg/mL): 7.1^a OD 595 nm
Biofilm (OD 595 nm) ([1]; 31.125 μg/mL): 7.0^a OD 595 nm
Biofilm (OD 595 nm) ([1]; 125 μg/mL): 7.2^a OD 595 nm
inhibition of biofilm formation, conclusion in words [1]: did not exhibit any biofilm formation inhibition
biofilm formed (CVSA), in words [1]: did not show any reduction of biofilm formation
Biofilm (OD 595 nm) ([3]; 7.81 μg/mL): 8.5^a OD 595 nm
Biofilm (OD 595 nm) ([3]; 31.125 μg/mL): 8.1^a OD 595 nm
biofilm formed (CVSA), in words [3]: did not show any reduction of biofilm formation
biofilm formation inhibition, conclusion in words ([3]; any dose tested): did not exhibit any biofilm formation inhibition

Reference: patent US20240009150A1, “CAPSAICYNS IN THE TREATMENT OF LEAKY GUT” (AXICHEM AB [SE]/[SE], priority 2020, published 2024)
